From patent US8946299B2, “Use of calixarenes associated with an antibiotic in the treatment of bacterial infections” (Universite de Lorraine, priority 2011, dated 2015)
Where “and” joins values, the source holds several entries; their conditions need not be identical. Equal entries are not always repeated. Where two headings read alike, the source gives them in different places.

Columns and labels:
[1] = system: Staphylococcus aureus strain ATCC 29213 (wild type); test: Chessboard technique: MICs alone and synergism of Cx1 combinations; format: cell-based; conditions: for Initials MIC (antibiotic): antibiotic used alone, second figure of the cell
Excerpt: (§1) Three reference strains were used, corresponding to those studied for the MICs and MBCs (Minimum Bactericidal Concentration): Escherichia coli ATCC 25922, Staphylococcus aureus ATCC 29213, Pseudomonas aeruginosa ATCC 27853. For each of these strains 3 corresponding clinical isolates were chosen, having various antibiotic-resistance profiles, routinely used in standard fashion: • EcR1, EcR2, EcR3; • SaR1, SaR3, SaR4; • PaR2, PaR3, PaR5.
(§2) 1.3. Procedure: Chessboard Technique
(§3) The bacterial suspension is transferred to a 15 mL Falcon tube, centrifuged for 10 min at 4500 g, then the pellet is re-suspended in 1 mL of sterile distilled water. Suitable dilutions are then prepared in order to obtain a bacterial inoculum between 5·10^5 and 5·10^6 CFU/mL.
(§4) The MICs of the antibiotics were previously determined for each strain, by the method of microdilution in a liquid medium (CLSI (Clinical and Laboratory Standards Institute), 2003).
(§5) The same procedure is followed for the Cx1. […] Thus 64 ATB/Cx1 combinations are obtained.
(§6) The final volume contained in each of the wells must be 100 μL. Two controls must be present on each plate: • column 1 and 12: medium control • column 2 and 11: medium+bacteria control
(§7) Cx1: […] in the wells of […], starting with the lowest concentration.
(§8) ATB: 25 μL in the wells of rows H to A (columns 3 to 11), starting with the lowest concentration.
(§9) 50 μL in each of the wells of columns 2 to 11.
(§10) D2: Reading the Turbidity at 540 Nm.
(§11) The FIC (Fractional Inhibitory Concentration Index) value is determined by the following formula:
(§12) [formula] MICA in combination MICA alone MICB in combination MICB alone
(§13) When FIC≦0.5, there is a synergistic effect between antibiotic A and antibiotic B.
(§14) When 0.5<FIC≦1, there is an additive effect between antibiotic A and antibiotic B.
(§15) When 1<FIC≦4, there is an indifferent effect between antibiotic A and antibiotic B.
(§16) When FIC>4, there is an antagonistic effect between antibiotic A and antibiotic B.
(§17) For each strain and each antibiotic/Cx1 combination, the experiments were repeated a minimum of 3 times.

[2] = system: MRSA strain having a resistance to the aminoglycosides and fluoroquinolones (SaR3); test: as above; format: cell-based, Staphylococcus aureus; conditions: for MIC (antibiotic): antibiotic used alone, second figure of the cell
Excerpt: as §1, §2, §3, §4, §5, §6, §7, §8, §9, §10, §11, §12, §13, §14, §15, §16, §17

[3] = system: MRSA strain having a resistance to the aminoglycosides, fluoroquinolones, macrolides-lincosamides-synergistins and ofloxacin (SaR4); test: as above; format: cell-based, Staphylococcus aureus; conditions: n = 4; for MIC (antibiotic): antibiotic used alone, second figure of the cell
Excerpt: as §1, §2, §3, §4, §5, §6, §7, §8, §9, §10, §11, §12, §13, §14, §15, §16, §17

[4] = system: MRSA strain without associated resistance (SaR1); test: as above; format: cell-based, Staphylococcus aureus; conditions: for MIC (antibiotic): antibiotic used alone, second figure of the cell
Excerpt: as §1, §2, §3, §4, §5, §6, §7, §8, §9, §10, §11, §12, §13, §14, §15, §16, §17

[5] = system: SaR1: Meticillin-Resistant Staphylococcus aureus without Associated Resistance; test: Antibiogram by the VITEK 2 system; format: cell-based; conditions: Table D1; strain SaR1
Method: 5.4 SaR1: Meticillin-Resistant Staphylococcus aureus without Associated Resistance
The bacterial and antibiogram identification is carried out by the VITEK 2 system (bioMérieux)
February 2006: Detection of the gene mecA by the PCR technique: POSITIVE Expert finding July 2006: totally typical phenotype: modification of the PLPs The fluctuations relative to the type of associated resistance for certain strains between Tables D1 and D2 are due to the development of the French (CA-SFM), European (EUCAST) and American (CLSI) recommendations for the categorization of bacterial strains. 5.5 SaR3: Meticillin-Resistant Staphylococcus aureus Having an Associated Resistance to the Aminoglycosides and Fluoroquinolones The bacterial and antibiogram identification is carried out by the VITEK 2 system (bioMérieux) and by the disk diffusion technique

[6] = system: SaR3: Meticillin-Resistant Staphylococcus aureus; test: Antibiogram by the disk diffusion technique; format: cell-based; conditions: Table E1; strain SaR3
[7] = system: ESBL-producing strain of Escherichia coli (EcR3); test: Chessboard technique: MICs alone and synergism of Cx1 combinations; format: cell-based; conditions: n = 4; for Initial MICs (antibiotic): antibiotic used alone, second figure of the cell
Excerpt: as §1, §2, §3, §4, §5, §6, §7, §8, §9, §10, §11, §12, §13, §14, §15, §16, §17

[8] = system: Pseudomonas aeruginosa strain ATCC 27853 (wild type); test: as above; format: cell-based
Excerpt: as §1, §2, §3, §4, §5, §6, §7, §8, §9, §10, §11, §12, §13, §14, §15, §16, §17

[9] = system: Pseudomonas aeruginosa strain having a resistance to β-lactams (including the carbapenems), aminoglycosides, the trimethoprim-sulphamethoxazole combination and …; test: as above; format: cell-based; conditions: n = 4
Excerpt: as §1, §2, §3, §4, §5, §6, §7, §8, §9, §10, §11, §12, §13, §14, §15, §16, §17

[10] = system: cephalosporinase-hyperproducing strain of Escherichia coli (EcR2); test: as above; format: cell-based; conditions: n = 4; for Initial MICs (antibiotic): antibiotic used alone, second figure of the cell
Excerpt: as §1, §2, §3, §4, §5, §6, §7, §8, §9, §10, §11, §12, §13, §14, §15, §16, §17

[11] = system: mucoid strain of Pseudomonas aeruginosa having a resistance to rifampicin and the trimethoprim-sulphamethoxazole combination (PaR5); test: as above; format: cell-based; conditions: n = 4
Excerpt: as §1, §2, §3, §4, §5, §6, §7, §8, §9, §10, §11, §12, §13, §14, §15, §16, §17

[12] = system: Pseudomonas aeruginosa strain having a resistance to β-lactams, the trimethoprim-sulphamethoxazole combination and fosfomycin (PaR2); format: cell-based; conditions: n = 4
Excerpt: as §1, §2, §3, §4, §5, §6, §7, §8, §9, §10, §11, §12, §13, §14, §15, §16, §17

[13] = system: EcR1: Penicillinase-Producing Escherichia coli without Associated Resistance; test: Antibiogram, MIC by the VITEK 2 system; format: cell-based; conditions: Table A1, category from MIC
Method: (§18) 5. Identification and Antibiogram 5.1 EcR1: Penicillinase-Producing Escherichia coli without Associated Resistance
(§19) The bacterial and antibiogram identification is carried out by the VITEK 2 system (bioMérieux) and by the disk diffusion technique.

[14] = system: EcR1: Penicillinase-Producing Escherichia coli without Associated Resistance; test: Antibiogram by the disk diffusion technique; format: cell-based; conditions: for Results (diameter): Table A1, category from diameter vs Dmin Dmax
Method: as §18, §19

[15] = system: EcR2: Cephalosporinase-Hyperproducing Escherichia coli; test: Antibiogram by the disk diffusion technique; format: cell-based; conditions: Table B2; strain EcR2; diameters
Method: 5.2 EcR2: Cephalosporinase-Hyperproducing Escherichia coli Having an Associated Resistance to the Aminoglycosides, Quinolones and the Trimethoprim-Sulphamethoxazole Combination
The bacterial and antibiogram identification is carried out by the VITEK 1 system (bioMérieux) and by the disk diffusion technique

[16] = system: Escherichia coli, Staphylococcus aureus and Pseudomonas aeruginosa strains; test: Chessboard technique, summary over all strains and combinations tested; format: cell-based
Excerpt: as §1, §2
The FIC (Fractional Inhibitory Concentration Index) value is determined by the following formula: […]
as §17

[17] = Chessboard technique: MICs alone and synergism of Cx1 combinations; format: cell-based, Staphylococcus aureus; conditions: Staphylococcus aureus, MRSA, read-out: MIC (antibiotic)
Excerpt: as §1, §2, §3, §4, §5, §6, §7, §8, §9, §10, §11, §12, §13, §14, §15, §16, §17

[18] = system: SaR4: Meticillin-Resistant Staphylococcus aureus; test: Antibiogram, MIC by the VITEK 2 system; format: cell-based
Method: 5.6 SaR4: Meticillin-Resistant Staphylococcus aureus Having an Associated Resistance to the Aminoglycosides, Fluoroquinolones, Macrolides-Lincosamines-Synergistins and Ofloxacin The bacterial and antibiogram identification is carried out by the VITEK 2 system (bioMérieux) and by the disk diffusion technique
5.7 PaR2: Pseudomonas aeruginosa Having an Associated Resistance to the β-Lactams, the Trimethoprim-Sulphamethoxazole Combination and Fosfomycin The bacterial and antibiogram identification is carried out by the VITEK 2 system (bioMérieux) and by the disk diffusion technique

[19] = system: Escherichia coli strain ATCC 25922 (wild type); test: Chessboard technique: MICs alone and synergism of Cx1 combinations; format: cell-based
Excerpt: as §1, §2, §3, §4, §5, §6, §7, §8, §9, §10, §11, §12, §13, §14, §15, §16, §17

[20] = system: penicillinase-producing strain of Escherichia coli without associated resistance (EcR1); test: as above; format: cell-based; conditions: n = 4
Excerpt: as §1, §2, §3, §4, §5, §6, §7, §8, §9, §10, §11, §12, §13, §14, §15, §16, §17

[21] = system: PaR5: Pseudomonas aeruginosa; test: Antibiogram by the disk diffusion technique; format: cell-based; set-up: unit not given here; conditions: Table I1; strain PaR5
[22] = antibiotic used alone, second figure of the cell, n = 4
[23] = antibiotic used alone, second figure of the cell
[24] = Staphylococcus aureus, MRSA, read-out: MIC (antibiotic)
[25] = Cx1 used alone, first figure of the cell
[26] = Cx1 used alone, first figure of the cell, n = 4

CC1(C)S[C@@H]2[C@H](NC(=O)Cc3ccccc3)C(=O)N2[C@H]1C(=O)O [Penicillin G]
Initials MIC (antibiotic) ([1]; n = 4): 1 µg/mL
MIC (antibiotic) ([2]; n = 4): 0.5 µg/mL
MIC (antibiotic) [3]: 4 µg/mL
MIC (antibiotic) ([4]; n = 4): 0.5 µg/mL
Diameter [5]: 28
Diameter [6]: 26

NC[C@H]1O[C@H](O[C@H]2[C@H](O)[C@@H](O[C@H]3O[C@H](CO)[C@@H](O)[C@H](N)[C@H]3O)[C@H](N)C[C@@H]2N)[C@H](N)C[C@@H]1O [Tobramycin]
Initial MICs (antibiotic) [7]: 4 mg/L
MIC (antibiotic) [8, 22]: 0.5 µg/mL
MIC (antibiotic) [9, 23]: 64 µg/mL
Initial MICs (antibiotic) [10]: 4 mg/L
MIC (antibiotic) [11, 23]: 1 µg/mL
MIC (antibiotic) [12, 23]: 1 µg/mL
Results (MIC) [13]: Susceptible
Results (diameter) [14]: Susceptible
diameter in mm [15]: 10 mm
nature of the interaction between Cx1 and the antibiotic [16]: synergism

CN[C@H](CC(C)C)C(=O)N[C@H]1C(=O)N[C@@H](CC(N)=O)C(=O)N[C@H]2C(=O)N[C@H]3C(=O)N[C@H](C(=O)N[C@H](C(=O)O)c4cc(O)cc(O)c4-c4cc3ccc4O)[C@H](O)c3ccc(c(Cl)c3)Oc3cc2cc(c3O[C@@H]2O[C@H](CO)[C@@H](O)[C@H](O)[C@H]2O[C@H]2C[C@](C)(N)[C@H](O)[C@H](C)O2)Oc2ccc(cc2Cl)[C@H]1O [Vancomycin]
MIC ([1]; Staphylococcus aureus, ATCC29213, read-out: Initials MIC (antibiotic)): 0.5 µg/mL
MIC [17]: 0.25 µg/mL
MIC [2, 24]: 0.25 µg/mL
MIC [4, 24]: 0.25 µg/mL
MIC ([18]; Staphylococcus aureus, read-out: MIC mg/L): 1 mg/L
MIC ([18]; Table F2, strain SaR4, cells of the mixed column that are MICs): 1 mg/L

Gentamicin
Initial MICs (antibiotic) [7]: 2/2 mg/L
Initial MICs (antibiotic) [19, 22]: 0.125 mg/L
Initials MIC (antibiotic) ([1]; n = 4): 0.25 µg/mL
Initial MICs (antibiotic) [10]: 2/2 mg/L
Initial MICs (antibiotic) [20, 23]: 0.125 mg/L
MIC (antibiotic) ([2]; n = 4): 0.125 µg/mL
MIC (antibiotic) [3]: 0.25 µg/mL
MIC (antibiotic) ([4]; n = 4): 0.25 µg/mL
Results (MIC) [13]: Susceptible
Results (diameter) [14]: Susceptible
Diameter ([14]; Table A1, disk diffusion): 20
Diameter [5]: 23
Diameter [6]: 20
Diameter [21]: 25
nature of the interaction between Cx1 and the antibiotic [16]: synergism

Pristinamycin
Diameter [5]: 25
Diameter [6]: 23

para-guanidinoethylcalix[4]arene [Cx1]
Initial MICs (Cx1) [7, 25]: 2 mg/L and 2/2 mg/L
Initial MICs (Cx1) ([19]; Cx1 alone, E. coli ATCC 25922): 4 mg/L
Initial MICs (Cx1) [19, 26]: 4 mg/L and 2 mg/L and 4/4 mg/L
Initial MICs (Cx1) ([8]; Cx1 alone, P. aeruginosa ATCC 27853): 32/32 mg/L and 32 mg/L
MIC (Cx1) [8, 26]: 32 µg/mL
MIC (Cx1) [9, 25]: 32 mg/L and 32/32 mg/L
Initial MICs (Cx1) ([1]; Cx1 alone, S. aureus ATCC 29213): 8 mg/L
Initials MIC (Cx1) [1, 26]: 8 mg/L and 8/8 mg/L
Initial MICs (Cx1) [10, 25]: 2 mg/L and 2/2 mg/L
MIC (Cx1) [11, 25]: 32/32 mg/L and 32 mg/L
Initial MICs (Cx1) [20, 25]: 2 mg/L
MIC (Cx1) [2, 26]: 8 mg/L and 8/8 mg/L
MIC (Cx1) [3, 25]: 8 µg/mL
MIC (Cx1) [4, 26]: 8 µg/mL
MIC (Cx1) [12, 25]: 32 µg/mL
